Data as given in patent US20170343549A9, “METHODS FOR DETECTING AND MONITORING COLORECTAL CANCER” (REGENTS OF THE UNIVERSITY OF MINNESOTA, priority 2015, published 2017).
Entries after “also recorded” stand apart in the source; their conditions may differ.

Legend:
Assay type in all cases: in vivo, human
circulating TXA2 = experiment: Circulating TXA2 level in FAP patients, regular aspirin users vs nonusers (plasma enzyme immunoassay); settings: regular aspirin use (two or more 325 mg tablets per week, n=14) vs nonusers (n=24), FIG. 4A
Experimental: (§1) All clinical studies using human subjects or human materials were approved by the Mayo Clinic review board. Volunteers were recruited by the Gastroenterology and Hepatology group at Mayo Clinic, Rochester, Minn. Individuals in the healthy control group (n=16) were normal patients who underwent colonoscopy screening. Familial adenomatous polyposis (FAP) patients who reported taking two or more standard (325 mg) aspirin tablets per week were classified as regular aspirin users (n=14) and those reporting consumption of less aspirin were classified as aspirin nonusers (n=24) (Chan et al., 2007. N Engl J Med 356 (21):2131-2142). Individuals in the sporadic colorectal cancer group (n=20) were patients who were diagnosed with colorectal cancer, but without a family history of colorectal cancer. Other inclusion criteria were as follows: age at 18-75 years old; gender ratio approximately 1:1; and a non-smoking history. The measurement of PGs in plasma from patients was performed using enzyme immunoassay kits from Cayman Chemical Co. (Ann Arbor, Mich.) following the manufacturer's instructions. Briefly, blood was collected from a vein in the arm just inside the elbow using a 22 gauge needle. Before blood collection, the tourniquet was applied about three inches above the selected puncture site. […]

the other four PGs = experiment: Circulating levels of the other four PGs in FAP patients, regular aspirin users vs nonusers (plasma enzyme immunoassay); settings: regular aspirin use vs nonusers, FIG. 4A
Experimental: as §1

TBXA2R = experiment: Immunohistochemistry staining of TBXA2R in polyps of FAP patients, aspirin users vs nonusers; settings: epithelial cells from polyps, aspirin intake, FIG. 4B
Experimental: (§2) All clinical studies using human subjects or human materials were approved by the Mayo Clinic review board. Volunteers were recruited by the Gastroenterology and Hepatology group at Mayo Clinic, Rochester, Minn. Individuals in the healthy control group (n=16) were normal patients who underwent colonoscopy screening. Familial adenomatous polyposis (FAP) patients who reported taking two or more standard (325 mg) aspirin tablets per week were classified as regular aspirin users (n=14) and those reporting consumption of less aspirin were classified as aspirin nonusers (n=24) (Chan et al., 2007. N Engl J Med 356 (21):2131-2142). Individuals in the sporadic colorectal cancer group (n=20) were patients who were diagnosed with colorectal cancer, but without a family history of colorectal cancer. Other inclusion criteria were as follows: age at 18-75 years old; gender ratio approximately 1:1; and a non-smoking history.
(§3) Surgically resected human colon tissues at all clinical stages were fixed in 10% formalin overnight at room temperature. […] Immunohistochemistry staining intensity was quantified by calculating the integrated optical density (IOD, sum) of area of interest using the Image Pro-Plus 7.0 software program (Media Cybernetics, Inc., Rockville, Md.).

TBXAS1 = experiment: Immunohistochemistry staining of TBXAS1 in polyps of FAP patients, aspirin users vs nonusers; settings: epithelial cells from polyps, aspirin intake, FIG. 4B
Experimental: as §2, §3

Ki-67 = experiment: Immunohistochemistry staining of Ki-67 in polyps of FAP patients, aspirin users vs nonusers; settings: epithelial cells from polyps, aspirin intake, FIG. 4B
Experimental: as §2, §3

SMILES: CC(=O)Oc1ccccc1C(=O)O [aspirin]
- circulating TXA2 level (circulating TXA2): significant (p<0.001) decrease; also recorded: significantly decreased
- levels of the other four PGs (the other four PGs): little effect
- expression of TBXA2R (TBXA2R): lower expression
- expression of TBXAS1 (TBXAS1): lower expression
- expression of Ki-67 (Ki-67): lower expression
